14 compounds from PubChem BioAssay (NCI) can be followed below.

Some test systems named below: TK-10 renal; SNB-75 CNS; SK-OV-3 ovarian; CCRF-CEM leukemia; IGROV1 ovarian; SNB-19 CNS; KM12 colon; OVCAR-5 ovarian; LOX IMVI melanoma; COLO 205 colon.
Experiment in all cases: NCI anticancer screen, dose series, 48 h

Molecules are shown by their SMILES.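 Briefly, cells in 96-well plates were exposed to five compound concentrations for 48 h, and endpoints were estimated by linear interpolation. At the TGI there is no net growth.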

Consider `CC1C2(C)OCC(C#N)(C(=N)O2)C1(C#N)C#N` (configuration not stated), for which the TGI in the test on TK-10 renal, in the test with SNB-75 CNS, in the test with SK-OV-3 ovarian, with CCRF-CEM leukemia, with IGROV1 ovarian and with SNB-19 CNS was > 100 µM in each case. In addition, the TGI in the test with KM12 colon was > 100 µM; in the test with OVCAR-5 ovarian, 85.6 µM; in the test with LOX IMVI melanoma it was 40.4 µM; in the test on COLO 205 colon, 27.8 µM.

Turning to `CC(C)c1ccc(/C=C2\CSCC3=C2N=C2SCC(=O)N2C3c2ccc(C(C)C)cc2)cc1` (configuration not stated), the TGI in the test with TK-10 renal, in the test on SNB-75 CNS, with SK-OV-3 ovarian, in the test on CCRF-CEM leukemia, in the test with IGROV1 ovarian and with KM12 colon was > 100 µM throughout. Besides, the TGI in the test with OVCAR-5 ovarian, in the test on LOX IMVI melanoma and with COLO 205 colon was > 100 µM each time.

As for `Nc1cc2c3c(cccc3c1)C(=O)N(c1ccc(OCCN3CCCC3)cc1)C2=O`, the TGI with TK-10 renal turned out to be 35.6 µM; in the test on SNB-75 CNS, 25.3 µM; in the test on SK-OV-3 ovarian, 42 µM; in the test on CCRF-CEM leukemia, 69 µM; in the test on IGROV1 ovarian, 36.4 µM; with SNB-19 CNS, 41.9 µM. Also, the TGI in the test on KM12 colon was 31.1 µM; in the test with OVCAR-5 ovarian it was 46.3 µM; in the test on LOX IMVI melanoma it was 48.5 µM; in the test on COLO 205 colon, 35.2 µM.

As to `CCCCCCCCCCCCOP(=O)(O)OP(=O)(O)OCC1OC(n2cc(C)c(=O)[nH]c2=O)CC1O` (configuration not stated), the TGI in the test on TK-10 renal, in the test on SNB-75 CNS, in the test with SK-OV-3 ovarian, in the test with CCRF-CEM leukemia, in the test with IGROV1 ovarian and in the test with SNB-19 CNS was > 100 µM each time. In addition, the TGI in the test on KM12 colon, with OVCAR-5 ovarian, in the test with LOX IMVI melanoma and with COLO 205 colon was > 100 µM throughout.

Take `Cc1ccc(S[C@@H](C)[C@@](O)(C(N)=O)c2ccccc2)cc1`: the TGI in the test with TK-10 renal was > 100 µM; in the test on SNB-75 CNS, > 100 µM; with SK-OV-3 ovarian it was > 100 µM; in the test on CCRF-CEM leukemia, 26.2 µM; in the test with IGROV1 ovarian, 15.5 µM; with SNB-19 CNS it was > 100 µM. The TGI is > 100 µM in the test with KM12 colon, > 100 µM in the test on OVCAR-5 ovarian, 33.7 µM with LOX IMVI melanoma and > 100 µM with COLO 205 colon.

Regarding `FC(F)(F)c1ccc2nc(Sc3ccc4ccccc4c3)cnc2c1`, the TGI with TK-10 renal, with SNB-75 CNS, with SK-OV-3 ovarian, with CCRF-CEM leukemia, in the test on IGROV1 ovarian and with SNB-19 CNS was > 100 µM in each case. Also, the TGI with KM12 colon, in the test on OVCAR-5 ovarian, with LOX IMVI melanoma and with COLO 205 colon was > 100 µM throughout.

Take `C=C1CC2[C@H](C)C(=O)CCC2(C)C2=C1C1CCC(C(C)CCC(=C)C(C)C(=O)O)C1(C)CC2=O` (some centres not stated): the TGI with TK-10 renal was > 100 µM; in the test on SNB-75 CNS, > 100 µM; in the test with SK-OV-3 ovarian it was > 100 µM; in the test on CCRF-CEM leukemia, 30.3 µM; in the test on IGROV1 ovarian it was > 100 µM; in the test on SNB-19 CNS, > 100 µM. In addition, the TGI in the test on KM12 colon is > 100 µM; in the test with OVCAR-5 ovarian, > 100 µM; with LOX IMVI melanoma, 33.8 µM; in the test with COLO 205 colon it was > 100 µM.

Regarding `CN(C)/C=C/C=C(/C=N/S(=O)(=O)C(F)(F)F)C1C=CN(S(=O)(=O)C(F)(F)F)C=C1`, the TGI in the test with TK-10 renal was > 100 µM; in the test on SNB-75 CNS, 50.6 µM; in the test with SK-OV-3 ovarian it was 94 µM; in the test with CCRF-CEM leukemia it was 79.9 µM; in the test with IGROV1 ovarian, > 100 µM; with KM12 colon, 71.1 µM. Also, the TGI is 91.7 µM in the test on OVCAR-5 ovarian, > 100 µM with LOX IMVI melanoma and 32.6 µM with COLO 205 colon.

For the compound `COc1ccc2c(c1)CCC/C2=N\NS(=O)(=O)c1c(C)cc(C)cc1C`, the TGI is > 100 µM with TK-10 renal; 58.9 µM in the test with SNB-75 CNS; 63.7 µM in the test with CCRF-CEM leukemia; 55 µM in the test on IGROV1 ovarian; > 100 µM with SNB-19 CNS; 32.9 µM in the test with KM12 colon. The results for the TGI with OVCAR-5 ovarian, in the test on LOX IMVI melanoma and in the test with COLO 205 colon were > 100 µM, 43 µM and 57.2 µM, respectively.

In the case of `CC(C)C(NC(=O)C(Cc1ccccc1)NC(=O)[C@H]1CCC[C@H]1NC(=O)C(Cc1ccc(OC(C)(C)C)cc1)NC(=O)OC(C)(C)C)C(N)=O` (some centres not stated), the TGI with TK-10 renal is 72 µM; in the test on SNB-75 CNS, 29.2 µM; with SK-OV-3 ovarian, 57.6 µM; with CCRF-CEM leukemia, 39.4 µM; with IGROV1 ovarian, > 100 µM; in the test with KM12 colon, 41.8 µM. The TGI in the test with OVCAR-5 ovarian is 36.2 µM; in the test with LOX IMVI melanoma it was 30.3 µM; in the test with COLO 205 colon it was 36.9 µM.

On to `Cc1ccccc1NC(=O)Cc1csc(N=Nc2c(O)[nH]c3ccccc23)n1`, for which the TGI with TK-10 renal, in the test with SNB-75 CNS, in the test on CCRF-CEM leukemia, in the test with IGROV1 ovarian, with SNB-19 CNS and in the test with KM12 colon was > 100 µM in each case. Also, the TGI in the test on OVCAR-5 ovarian, in the test on LOX IMVI melanoma and with COLO 205 colon was > 100 µM each time.

As to `COc1ccc(-n2cnc3c(NC(Cc4ccccc4)C(=O)O)ncnc32)cc1` (configuration not stated), the TGI in the test with TK-10 renal, with SNB-75 CNS, with SK-OV-3 ovarian, in the test with CCRF-CEM leukemia, in the test on IGROV1 ovarian and in the test on KM12 colon was > 100 µM in each case. Also, the TGI with OVCAR-5 ovarian, with LOX IMVI melanoma and with COLO 205 colon was > 100 µM throughout.

Take `CCOC(=O)C(C)N1C(=O)c2ccccc2S1(=O)=O` (configuration not stated): the TGI in the test on SNB-75 CNS, in the test with SK-OV-3 ovarian, with CCRF-CEM leukemia, in the test with IGROV1 ovarian, with SNB-19 CNS and in the test on KM12 colon was > 100 µM throughout. Moreover, the TGI in the test with OVCAR-5 ovarian, in the test on LOX IMVI melanoma and with COLO 205 colon was > 100 µM throughout.

Regarding `C=CC[C@H](N=C(SC)SC)C(=O)N1C(=O)N(C)[C@@H](C)[C@H]1c1ccccc1`, the TGI in the test on TK-10 renal, in the test on SNB-75 CNS, in the test with SK-OV-3 ovarian, with CCRF-CEM leukemia, in the test with SNB-19 CNS and with KM12 colon was > 100 µM in each case. In addition, the TGI with OVCAR-5 ovarian, with LOX IMVI melanoma and in the test on COLO 205 colon was > 100 µM each time.
